In patent US20060069132A1, “Azolecarboxamide herbicides” (priority 2004, published 2006):

Tests used:
Test in all cases: Test E pre-/postemergence herbicide test
Settings in all cases: Preemergence
bermudagrass = type: in vivo, Cynodon dactylon
Procedure, shortened: (§1)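 Each species was compared with untreated controls 12 to 14 days after greenhouse application and assigned a visual score from 0 (no effect) to 100 (complete control). Applications were preemergence to seeded soil or postemergence to 1- to 4-leaf plants, using a solvent-plus-surfactant formulation.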

large crabgrass = type: in vivo, Digitaria sanguinalis
Procedure, shortened: as §1

johnsongrass = type: in vivo, Sorghum halepense
Procedure, shortened: as §1

purple nutsedge = type: in vivo, Cyperus rotundus
Procedure, shortened: as §1

mustard = type: in vivo, Brassica nigra
Procedure, shortened: as §1

guineagrass = type: in vivo, Panicum maximum
Procedure, shortened: as §1

dallisgrass = type: in vivo, Paspalum dilatatum
Procedure, shortened: as §1

southern sandbur = type: in vivo, Cenchrus echinatus
Procedure, shortened: as §1

Italian ryegrass = type: in vivo, Lolium multiflorum
Procedure, shortened: as §1

common purslane = type: in vivo, Portulaca oleracea
Procedure, shortened: as §1

common groundsel = type: in vivo, Senecio vulgaris
Procedure, shortened: as §1

common chickweed = type: in vivo, Stellaria media
Procedure, shortened: as §1

tropical spiderwort = type: in vivo, Commelina benghalensis
Procedure, shortened: as §1

quackgrass = type: in vivo, Elytrigia repens
Procedure, shortened: as §1

Canada horseweed = type: in vivo, Erigeron Canadensis
Procedure, shortened: as §1

field bindweed = type: in vivo, Convolvulus arvensis
Procedure, shortened: as §1

[1] = 250 g ai/ha, scale 0 (no effect) to 100 (complete control)
[2] = 500 g ai/ha, scale 0 (no effect) to 100 (complete control)

With `CCc1nn(C(C)(C)CC)nc1C(=O)Nc1cccc(C(=O)N(C)C)c1` [Compound 372] the “Plant response rating, Bermudagrass” value (bermudagrass; 62 g ai/ha, scale 0 to 100) was 10, the “Plant response rating, Bermudagrass” value (bermudagrass; 125 g ai/ha, scale 0 to 100) was 60 and the “Plant response rating, Bermudagrass” value (bermudagrass; [1]) was 60. For the same molecule, the “Plant response rating, Bermudagrass” value (bermudagrass; [2]) was 90, the “Plant response rating, Crabgrass, Large” value (large crabgrass; 62 g ai/ha, scale 0 to 100) was 10 and the “Plant response rating, Crabgrass, Large” value (large crabgrass; 125 g ai/ha, scale 0 to 100) was 50. For the same molecule, the “Plant response rating, Crabgrass, Large” value (large crabgrass; [1]) was 70, the “Plant response rating, Crabgrass, Large” value (large crabgrass; [2]) was 100 and the “Plant response rating, Johnsongrass” value (johnsongrass; 62 g ai/ha, scale 0 to 100) was 30. The “Plant response rating, Johnsongrass” value (johnsongrass; 125 g ai/ha, scale 0 to 100) was 50, the “Plant response rating, Johnsongrass” value (johnsongrass; [1]) was 70 and the “Plant response rating, Johnsongrass” value (johnsongrass; [2]) was 80. The “Plant response rating, Nutsedge, Purple” value (purple nutsedge; 62 g ai/ha, scale 0 to 100) was 30, the “Plant response rating, Nutsedge, Purple” value (purple nutsedge; [1]) was 50 and the “Plant response rating, Nutsedge, Purple” value (purple nutsedge; [2]) was 100. For the same molecule, the “Plant response rating, Black Mustard” value (mustard; 62 g ai/ha, scale 0 to 100) was 100, the “Plant response rating, Black Mustard” value (mustard; 125 g ai/ha, scale 0 to 100) was 100 and the “Plant response rating, Black Mustard” value (mustard; [1]) was 100. For the same molecule, the “Plant response rating, Black Mustard” value (mustard; [2]) was 100, the “Plant response rating, Guineagrass” value (guineagrass; 62 g ai/ha, scale 0 to 100) was 40 and the “Plant response rating, Guineagrass” value (guineagrass; 125 g ai/ha, scale 0 to 100) was 80. The “Plant response rating, Guineagrass” value (guineagrass; [1]) was 80, the “Plant response rating, Guineagrass” value (guineagrass; [2]) was 95 and the “Plant response rating, Dallisgrass” value (dallisgrass; 62 g ai/ha, scale 0 to 100) was 10. For the same molecule, the “Plant response rating, Dallisgrass” value (dallisgrass; 125 g ai/ha, scale 0 to 100) was 50, the “Plant response rating, Dallisgrass” value (dallisgrass; [1]) was 80 and the “Plant response rating, Dallisgrass” value (dallisgrass; [2]) was 85. The “Plant response rating, Sandbur” value (southern sandbur; 62 g ai/ha, scale 0 to 100) was 20, the “Plant response rating, Sandbur” value (southern sandbur; 125 g ai/ha, scale 0 to 100) was 30 and the “Plant response rating, Sandbur” value (southern sandbur; [1]) was 60. The “Plant response rating, Sandbur” value (southern sandbur; [2]) was 70, the “Plant response rating, Ryegrass, Italian” value (Italian ryegrass; 62 g ai/ha, scale 0 to 100) was 60 and the “Plant response rating, Ryegrass, Italian” value (Italian ryegrass; 125 g ai/ha, scale 0 to 100) was 70. The “Plant response rating, Ryegrass, Italian” value (Italian ryegrass; [1]) was 95, the “Plant response rating, Ryegrass, Italian” value (Italian ryegrass; [2]) was 95 and the “Plant response rating, Purslane” value (common purslane; 62 g ai/ha, scale 0 to 100) was 10. For the same molecule, the “Plant response rating, Purslane” value (common purslane; 125 g ai/ha, scale 0 to 100) was 40, the “Plant response rating, Purslane” value (common purslane; [1]) was 50 and the “Plant response rating, Purslane” value (common purslane; [2]) was 100. The “Plant response rating, Groundsel” value (common groundsel; 62 g ai/ha, scale 0 to 100) was 20, the “Plant response rating, Groundsel” value (common groundsel; 125 g ai/ha, scale 0 to 100) was 70 and the “Plant response rating, Groundsel” value (common groundsel; [1]) was 70. For the same molecule, the “Plant response rating, Groundsel” value (common groundsel; [2]) was 95, the “Plant response rating, Chickweed” value (common chickweed; 62 g ai/ha, scale 0 to 100) was 60 and the “Plant response rating, Chickweed” value (common chickweed; 125 g ai/ha, scale 0 to 100) was 90. For the same molecule, the “Plant response rating, Chickweed” value (common chickweed; [1]) was 95, the “Plant response rating, Chickweed” value (common chickweed; [2]) was 95 and the “Plant response rating, Spiderwort” value (tropical spiderwort; 125 g ai/ha, scale 0 to 100) was 70. For the same molecule, the “Plant response rating, Spiderwort” value (tropical spiderwort; [1]) was 70, the “Plant response rating, Spiderwort” value (tropical spiderwort; [2]) was 80 and the “Plant response rating, Quackgrass” value (quackgrass; 62 g ai/ha, scale 0 to 100) was 30. The “Plant response rating, Quackgrass” value (quackgrass; 125 g ai/ha, scale 0 to 100) was 60, the “Plant response rating, Quackgrass” value (quackgrass; [1]) was 95 and the “Plant response rating, Quackgrass” value (quackgrass; [2]) was 95. The “Plant response rating, Horseweed” value (Canada horseweed; 62 g ai/ha, scale 0 to 100) was 80, the “Plant response rating, Horseweed” value (Canada horseweed; 125 g ai/ha, scale 0 to 100) was 80 and the “Plant response rating, Horseweed” value (Canada horseweed; [1]) was 95. For the same molecule, the “Plant response rating, Horseweed” value (Canada horseweed; [2]) was 100, the “Plant response rating, Bindweed, Field” value (field bindweed; 62 g ai/ha, scale 0 to 100) was 10 and the “Plant response rating, Bindweed, Field” value (field bindweed; 125 g ai/ha, scale 0 to 100) was 10. For the same molecule, the “Plant response rating, Bindweed, Field” value (field bindweed; [1]) was 50 and the “Plant response rating, Bindweed, Field” value (field bindweed; [2]) was 60.
In the case of `Cc1nn(C(C)(C)C)nc1C(=O)Nc1cccc(C(=O)N(C)C)c1` [Compound 391], the “Plant response rating, Bermudagrass” value (bermudagrass; 62 g ai/ha, scale 0 to 100) is reported as 85, the “Plant response rating, Bermudagrass” value (bermudagrass; 125 g ai/ha, scale 0 to 100) is reported as 90 and the “Plant response rating, Bermudagrass” value (bermudagrass; [1]) is reported as 95. For the same molecule, the “Plant response rating, Bermudagrass” value (bermudagrass; [2]) was 95, the “Plant response rating, Crabgrass, Large” value (large crabgrass; 62 g ai/ha, scale 0 to 100) was 60 and the “Plant response rating, Crabgrass, Large” value (large crabgrass; 125 g ai/ha, scale 0 to 100) was 95. For the same molecule, the “Plant response rating, Crabgrass, Large” value (large crabgrass; [1]) was 95, the “Plant response rating, Crabgrass, Large” value (large crabgrass; [2]) was 95 and the “Plant response rating, Johnsongrass” value (johnsongrass; 62 g ai/ha, scale 0 to 100) was 40. For the same molecule, the “Plant response rating, Johnsongrass” value (johnsongrass; 125 g ai/ha, scale 0 to 100) was 60, the “Plant response rating, Johnsongrass” value (johnsongrass; [1]) was 85 and the “Plant response rating, Johnsongrass” value (johnsongrass; [2]) was 100. For the same molecule, the “Plant response rating, Nutsedge, Purple” value (purple nutsedge; [1]) was 75, the “Plant response rating, Nutsedge, Purple” value (purple nutsedge; [2]) was 75 and the “Plant response rating, Black Mustard” value (mustard; 62 g ai/ha, scale 0 to 100) was 50. The “Plant response rating, Black Mustard” value (mustard; 125 g ai/ha, scale 0 to 100) was 80, the “Plant response rating, Black Mustard” value (mustard; [1]) was 100 and the “Plant response rating, Black Mustard” value (mustard; [2]) was 100. The “Plant response rating, Guineagrass” value (guineagrass; 62 g ai/ha, scale 0 to 100) was 60, the “Plant response rating, Guineagrass” value (guineagrass; 125 g ai/ha, scale 0 to 100) was 80 and the “Plant response rating, Guineagrass” value (guineagrass; [1]) was 100. The “Plant response rating, Guineagrass” value (guineagrass; [2]) was 100, the “Plant response rating, Dallisgrass” value (dallisgrass; 62 g ai/ha, scale 0 to 100) was 60 and the “Plant response rating, Dallisgrass” value (dallisgrass; 125 g ai/ha, scale 0 to 100) was 80. For the same molecule, the “Plant response rating, Dallisgrass” value (dallisgrass; [1]) was 95, the “Plant response rating, Dallisgrass” value (dallisgrass; [2]) was 95 and the “Plant response rating, Sandbur” value (southern sandbur; 62 g ai/ha, scale 0 to 100) was 10. For the same molecule, the “Plant response rating, Sandbur” value (southern sandbur; 125 g ai/ha, scale 0 to 100) was 70, the “Plant response rating, Sandbur” value (southern sandbur; [1]) was 80 and the “Plant response rating, Sandbur” value (southern sandbur; [2]) was 80. For the same molecule, the “Plant response rating, Ryegrass, Italian” value (Italian ryegrass; 125 g ai/ha, scale 0 to 100) was 80, the “Plant response rating, Ryegrass, Italian” value (Italian ryegrass; [1]) was 95 and the “Plant response rating, Ryegrass, Italian” value (Italian ryegrass; [2]) was 95. The “Plant response rating, Purslane” value (common purslane; 62 g ai/ha, scale 0 to 100) was 50, the “Plant response rating, Purslane” value (common purslane; 125 g ai/ha, scale 0 to 100) was 95 and the “Plant response rating, Purslane” value (common purslane; [1]) was 100. The “Plant response rating, Purslane” value (common purslane; [2]) was 100, the “Plant response rating, Groundsel” value (common groundsel; 125 g ai/ha, scale 0 to 100) was 95 and the “Plant response rating, Groundsel” value (common groundsel; [1]) was 100. The “Plant response rating, Groundsel” value (common groundsel; [2]) was 100, the “Plant response rating, Chickweed” value (common chickweed; 62 g ai/ha, scale 0 to 100) was 90 and the “Plant response rating, Chickweed” value (common chickweed; 125 g ai/ha, scale 0 to 100) was 90. The “Plant response rating, Chickweed” value (common chickweed; [1]) was 100, the “Plant response rating, Chickweed” value (common chickweed; [2]) was 100 and the “Plant response rating, Spiderwort” value (tropical spiderwort; 125 g ai/ha, scale 0 to 100) was 90. For the same molecule, the “Plant response rating, Spiderwort” value (tropical spiderwort; [1]) was 90, the “Plant response rating, Spiderwort” value (tropical spiderwort; [2]) was 95 and the “Plant response rating, Quackgrass” value (quackgrass; 62 g ai/ha, scale 0 to 100) was 40. For the same molecule, the “Plant response rating, Quackgrass” value (quackgrass; 125 g ai/ha, scale 0 to 100) was 90, the “Plant response rating, Quackgrass” value (quackgrass; [1]) was 95 and the “Plant response rating, Quackgrass” value (quackgrass; [2]) was 95. The “Plant response rating, Horseweed” value (Canada horseweed; 62 g ai/ha, scale 0 to 100) was 80, the “Plant response rating, Horseweed” value (Canada horseweed; 125 g ai/ha, scale 0 to 100) was 95 and the “Plant response rating, Horseweed” value (Canada horseweed; [1]) was 100. For the same molecule, the “Plant response rating, Horseweed” value (Canada horseweed; [2]) was 100, the “Plant response rating, Bindweed, Field” value (field bindweed; 62 g ai/ha, scale 0 to 100) was 20 and the “Plant response rating, Bindweed, Field” value (field bindweed; 125 g ai/ha, scale 0 to 100) was 90. For the same molecule, the “Plant response rating, Bindweed, Field” value (field bindweed; [1]) was 90 and the “Plant response rating, Bindweed, Field” value (field bindweed; [2]) was 95.
